Results published in patent US20240299353A1, “COMPOSITIONS AND METHODS FOR TREATING […] 5-MEO-DMT” (Alvarius Pharmaceuticals Ltd., priority 2021, published 2024).
Values joined by “and” are separate entries in the source; they are usually repeats but may differ in a detail not shown here. Identical values can stand only once.

Experiments:
hippocampal proteins = test: Hippocampal LC-MS/MS proteomics and PANTHER pathway overrepresentation; format: in vivo, Male Wistar rats; conditions: hippocampus
Procedure: These treatment groups were used for the molecular assessment of addiction-linked markers.
Due to incompatibilities between components of the lysis buffer in the High-Performance Liquid Chromatography (HPLC) mass spectrometer the samples were first precipitated in 100% (w/v) Trichloroacetic acid (TCA). 1 volume of TCA stock was added to 4 volumes of protein sample. The mixture was incubated for 10 mins at 4° C. before centrifugation at 14,000 RPM for 5 mins. The supernatant was discarded and the pellet was washed in acetone. The acetone was then discarded and the pellet was air-dried before resuspension in 6M urea (Sigma) made in 50 mM ammonium bicarbonate (ABC, Sigma). 100 mM dithiothreitol (DTT) was added to the sample for a final concentration of 5 mM and the sample was incubated while vortexing at 60° C. for 30 mins. Next, 200 mM iodoacetemide (IAA, Sigma) solution was added and the sample was incubated in the dark at room temperature for 30 mins. The sample was then diluted with 50 mM ABC to give a final concentration of ≤2M Urea before the addition of trypsin. 50 μl of reduced, alkylated sample was added to a vial of trypsin singles, proteomic grade (Sigma) and incubated at 37° C. overnight while vortexing. 1% acetic acid (AA) was added to the sample to stop the trypsination the following day. Sample clean-up was performed using Stage Tips for a 10 μl pipette with a 0.6 μl C18 resin (Merck) and clean up was carried out as follows; Tip was equilibrated (10 μl of 50% acetonitrile (ACN) in 0.1% trifluoroacetic acid (TFA) was aspirated into the tip and dispensed to waste x2, 10 μl of 0.1% TFA was aspirated and dispensed to waste x2), peptides were bound to resin and washed (10 μl of sample was aspirated and dispensed x5 cycles, 10 μl of 0.1% TFA was aspirated and dispensed to waste x2) before being eluted into a collecting tube containing 30 μl of 50% ACN in 0.1% TFA (aspirate and dispense the sample through Stage Tip x3). This process was repeated three times for each sample using the same Stage Tip and collection tube. Samples were dried in a vacuum centrifuge for 30 mins at 60° C. and resuspended in 30 μl of Buffer A (97% water, 2.5% ACN and 0.5% AA) and stored at −20° C.
Digested samples were run on a Thermo Scientific Q Exactive mass spectrometer connected to a Dionex Ultimate 3000 (RSLCnano) chromatography system. Tryptic peptides were resuspended in 0.1% formic acid. Each sample was loaded onto a fused silica emitter (75 μm ID, pulled using a laser puller (Sutter Instruments P2000)), packed with Recrocil Pur C18 (1.9 μm) reverse phase media and was separated by an increasing acetonitrile gradient over 47 mins at a flow rate of 250 nL/min. The mass spectrometer was operated in positive ion mode with a capillary temperature of 320° C., and with a potential of 2300V applied to the frit. All readings were acquired with the mass spectrometer operating in automatic data dependent switching mode. A high resolution (70,000) MS scan was performed using the Q Exactive to select the most intense ions prior to MS/MS analysis using Higher-energy collisional dissociation (HCD). To identify peptides and proteins the MS/MS spectra were searched against the rat UniProt database. The database searches were performed with carbamidomethylation (C) as a fixed modification and acetylation (protein N terminus) and oxidation (M) as variable modifications. Filtering by a false discovery rate (FDR) was applied for peptides and proteins (0.01). For the generation of label-free quantitative (LFQ) ion intensities for protein profiles, signals of corresponding peptides in different LCMS/MS runs were matched by MaxQuant.
The Perseus statistical software contained in the MaxQuant package was used to analyze ion intensities (LFQ Intensity). Protein identities were filtered to eliminate the identifications from the reverse database, only identified by site and common contaminants.

rats = test: Elevated plus maze; format: in vivo
Procedure: In this instance the animals were 9 weeks old at the initiation of drug exposures and we selected just the high (20 mg/kg) dose of 5-MeO-DMT from the molecular study. […] Due to the number of behavioral paradigms to be completed by each animal we divided the study into two cohorts staggered by two weeks with 8 animals coming from each cohort to make up the 16 animals for each treatment group. 23 hours after 5-MeO-DMT administration the animals were introduced to the open field arena where they were allowed to freely explore the area for 5 mins. Following the open field test (OFT) animals were returned to their home cage for 2 hours before beginning either the elevated plus maze (EPM) or pre-pulse inhibition (PPI) testing. 24 hours after completing the OFT animals were returned to the chamber for the first session in novel object (NO1) testing. The animals were returned to their home cage for 2 hours before beginning the EPM or PPI test. 24 hours after NO1 the animals returned to the open field chamber for the second session in novel object (N02) testing. After completing N02 animals were returned to their home cage for 2 hours before they underwent the forced swim test (FST) pre-test. 24 hours later the animals were returned to the FS cylinders for the FST. Upon completion of the FST all animals were euthanized. A timeline of this experimental cohort is described in FIG. 8A.
The experiment was conducted as described for cohort 1 for the first 13 days of injections. There are a number of notable differences in experimental procedures between the two cohorts of animals to be highlighted. […] Finally, the dose of 5-MeO-DMT was reduced to 10 mg/kg. The order and timing of all the behavioral paradigms were kept constant between the cohorts. A timeline of this experimental cohort is described in FIG. 8B. Additionally, 5-MeO-DMT administrations were staggered so animals could be observed for the duration of acute drug effects and to ensure recovery prior to the next animal being injected. The typical symptoms of psychedelic drug administration outlined above were reproduced in all animals administered 5-MeO-DMT.
Our EPM apparatus consisted of a plus-shaped white plastic platform positioned 100 cm above the ground. Two opposite arms of the maze were bordered by vertical walls measuring 20 cm high, with the other two arms open to the environment with no edges. Animals were placed into the centre of the maze facing a closed arm and allowed to explore freely for 5 min. At the conclusion of the test, rats were returned to their home cages and the apparatus was cleaned with 2% distal. Animal movement was recorded during the trial using Any-Maze software. Time spent in open or closed arms, number of entries into open arms and number of grooming behaviors were all quantified (FIG. 10A-10B). Behavioral assessment was conducted in a quiet room under low-level red-light illumination. Behaviors were scored by two observers blind to experimental conditions.

[1] = cohort 1, either treatment or the combination
[2] = cohort 2, either treatment or their combination

## COC(=O)[C@H]1[C@@H](OC(=O)c2ccccc2)C[C@@H]2CC[C@H]1N2C.Cl [cocaine, cocaine hydrochloride, reference compound]
Hippocampal proteins; 24 h, cocaine+vehicle, p<0.05, fold change ≥±20%
  differentially expressed proteins vs saline+vehicle: 340 proteins
Hippocampal proteins; cocaine group
  pathways significantly overrepresented (PANTHER): 157 pathways
Hippocampal proteins; cocaine-experienced animals
  top overrepresented pathways: regulation of metabolic processes, protein translation and synaptic signalling
rats; cohort 1
  secondary anxiety measures, stretch-attenuated posture (SAP) or head dipping: no treatment effects
rats; [1]
  duration of time spent in the open arms: unaffected by either treatment or the combination
  number of entries into the open arms: unaffected by either treatment or the combination
rats; cohort 2, cocaine p=0.0031
  duration of time spent in the open arms: significantly affected
rats; cohort 2, cocaine p=0.0054, no post hoc differences
  head dipping: significantly affected
rats; cohort 2, cocaine p=0.0055
  number of entries into the open arms: significantly affected
rats; [2]
  total distance travelled: no effect of either treatment or their combination

## COc1ccc2[nH]cc(CCN(C)C)c2c1 [5-MeO-DMT, 5-methoxy-N,N-dimethyltryptamine]
Hippocampal proteins; 10 mg/kg 5-MeO-DMT
  of the 118 5-MeO-DMT differentially expressed proteins, shared with the combination: 45 proteins
  pathways significantly overrepresented (PANTHER): 16 pathways
  top overrepresented pathways: altered protein translation and synthesis
Hippocampal proteins; 20 mg/kg 5-MeO-DMT
  of the 120 5-MeO-DMT differentially expressed proteins, shared with the combination: 57 proteins
  pathways significantly overrepresented (PANTHER): 24 pathways
  top overrepresented pathways: regulation of synapse organisation, structure and activity as well as modulating chemical transmission
Hippocampal proteins; 24 h, 10 mg/kg 5-MeO-DMT
  differentially expressed proteins vs saline+vehicle: 118 proteins
Hippocampal proteins; 24 h, 10 mg/kg and 20 mg/kg 5-MeO-DMT alone
  differentially expressed proteins shared between the two concentrations: 32 proteins
Hippocampal proteins; 24 h, 20 mg/kg 5-MeO-DMT
  differentially expressed proteins vs saline+vehicle: 120 proteins
Hippocampal proteins; 24 h, cocaine+10 mg/kg 5-MeO-DMT, 10 mg/kg
  differentially expressed proteins vs saline+vehicle: 541 proteins and 544 proteins
Hippocampal proteins; 24 h, cocaine+20 mg/kg 5-MeO-DMT
  differentially expressed proteins vs saline+vehicle: 221 proteins
Hippocampal proteins; cocaine+10 mg/kg 5-MeO-DMT
  of the 340 cocaine differentially expressed proteins, remaining in the combination: 245 proteins
  pathways significantly overrepresented (PANTHER): 309 pathways
  top overrepresented pathways: NAD and NADH metabolism, positive regulation of lamellipodium assembly and modulation of synaptic signaling
Hippocampal proteins; cocaine+20 mg/kg 5-MeO-DMT
  of the 340 cocaine differentially expressed proteins, remaining in the combination: 85 proteins
  pathways significantly overrepresented (PANTHER): 67 pathways
  top overrepresented pathways: positive regulation of telomerase activity, negative regulation of apoptosis and regulation of synapse organization, structure and activity
Hippocampal proteins; cocaine+10 and cocaine+20 mg/kg 5-MeO-DMT
  differentially expressed proteins shared between the combination groups: 153 proteins
rats; cohort 1
  secondary anxiety measures, stretch-attenuated posture (SAP) or head dipping: no treatment effects
rats; cohort 1, 5-MeO-DMT p<0.0001
  total distance travelled, main effect: significant effect
rats; cohort 1, cocaine+20 mg/kg 5-MeO-DMT relative to cocaine alone
  total distance travelled: reduction in the total distance travelled
rats; [1]
  duration of time spent in the open arms: unaffected by either treatment or the combination
  number of entries into the open arms: unaffected by either treatment or the combination
rats; cohort 2, cocaine and 5-MeO-DMT (10 mg/kg) combination relative to control and 5-MeO-DMT alone
  duration of time spent on the open arms: significantly increased
rats; [2]
  total distance travelled: no effect of either treatment or their combination
